According to PubChem BioAssay AID248 (DTP/NCI, 2004):
Where “and” joins values, the source holds several entries; their conditions need not be identical. Equal entries are not always repeated. Toxic doses and inconclusive results are not listed. Rule as the data show it: active = T/C of 150% or more; inactive = T/C below 125%.

Test system: L1210 leukemia ip in BDF1 mice, survival T/C
Test: NCI In Vivo Anticancer Drug Screen. Data for tumor model L1210 Leukemia (intraperitoneal) in B6D2F1 (BDF1) mice
Details: endpoint: mean survival time, higher = longer survival
Procedure, shortened: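 Mice bearing the transplanted tumor received compound or vehicle. Survival of the treated group was divided by that of the vehicle-treated control group to give the ratio.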

[1] = dose: 100.0 mg/kg/injection, schedule: Q01DX009 (ip), vehicle: saline with Tween-80
[2] = dose: 200.0 mg/kg/injection, schedule: Q01DX009 (ip), vehicle: saline with Tween-80
[3] = dose: 400.0 mg/kg/injection, schedule: Q01DX009 (ip), vehicle: saline with Tween-80
[4] = dose: 50.0 mg/kg/injection, schedule: Q01DX001 (ip), vehicle: carboxymethylcellulose (CMC)
[5] = dose: 100.0 mg/kg/injection, schedule: Q01DX001 (ip), vehicle: carboxymethylcellulose (CMC)
[6] = dose: 200.0 mg/kg/injection, schedule: Q01DX001 (ip), vehicle: carboxymethylcellulose (CMC)
[7] = dose: 100.0 mg/kg/injection, schedule: Q04DX003 (ip), vehicle: saline with Tween-80
[8] = dose: 200.0 mg/kg/injection, schedule: Q04DX003 (ip), vehicle: saline with Tween-80
[9] = dose: 400.0 mg/kg/injection, schedule: Q04DX003 (ip), vehicle: saline with Tween-80
[10] = dose: 100.0 mg/kg/injection, schedule: Q01DX009 (ip), vehicle: Klucel (hydroxypropylcellulose) (HPC)
[11] = dose: 100.0 mg/kg/injection, schedule: Q04DX003 (ip), vehicle: Klucel (hydroxypropylcellulose) (HPC)
[12] = dose: 200.0 mg/kg/injection, schedule: Q04DX003 (ip), vehicle: Klucel (hydroxypropylcellulose) (HPC)
[13] = dose: 200.0 mg/kg/injection, schedule: Q01DX001 (ip), vehicle: saline
[14] = dose: 400.0 mg/kg/injection, schedule: Q01DX001 (ip), vehicle: saline
[15] = dose: 200.0 mg/kg/injection, schedule: Q01DX009 (ip), vehicle: Klucel (hydroxypropylcellulose) (HPC)
[16] = dose: 400.0 mg/kg/injection, schedule: Q01DX009 (ip), vehicle: Klucel (hydroxypropylcellulose) (HPC)
[17] = dose: 100.0 mg/kg/injection, schedule: Q01DX001 (ip), vehicle: Klucel (hydroxypropylcellulose) (HPC)
[18] = dose: 200.0 mg/kg/injection, schedule: Q01DX001 (ip), vehicle: Klucel (hydroxypropylcellulose) (HPC)

Measured: T/C

O=C(O)c1ccc(NC(=O)c2ccc(F)cc2)cc1
inactive: [1] 94 % of control | [2] 96 % of control | [3] 105 % of control

O=C1c2cc(Br)ccc2-c2c(I)cc(Br)cc21
inactive: [4] 103 % of control | [5] 100 % of control | [6] 100 % of control | dose: 400.0 mg/kg/injection, schedule: Q01DX001 (ip), vehicle: carboxymethylcellulose (CMC) 100 % of control

O=C(/C=C/C(=O)N1CCOCC1)N1CCOCC1
inactive: [7] 100 % of control | [8] 104 % of control | [9] 116 % of control

CC(=O)OC1CCC2(C)C(CCC3C2CCC2(C)C(C(C)=O)CCC32)C1 (stereo not drawn)
inactive: dose: 100.0 mg/kg/injection, schedule: Q01DX009 (sc), vehicle: steriod suspending solution 95 % of control | dose: 200.0 mg/kg/injection, schedule: Q01DX009 (sc), vehicle: steriod suspending solution 95 % of control | dose: 400.0 mg/kg/injection, schedule: Q01DX009 (sc), vehicle: steriod suspending solution 90 % of control

C=CCc1ccc(OC(=O)Nc2cccc(C)c2)c(OC)c1
inactive: dose: 50.0 mg/kg/injection, schedule: Q01DX009 (ip), vehicle: saline with Tween-80 98 % of control | [1] 112 % of control | dose: 100.0 mg/kg/injection, schedule: Q04DX002 (ip), vehicle: saline with Tween-80 99 % of control | [2] 101 % of control and 102 % of control | dose: 200.0 mg/kg/injection, schedule: Q04DX002 (ip), vehicle: saline with Tween-80 89 % of control

N=C(N)SCCN1C(=O)c2ccccc2C1=O
inactive: [7] 103 % of control

COc1ccc(Nc2ccccc2C(=O)NN)cc1
inactive: dose: 50.0 mg/kg/injection, schedule: Q01DX009 (ip), vehicle: Klucel (hydroxypropylcellulose) (HPC) 102 % of control | [10] 96 % of control | [11] 94 % of control | [12] 105 % of control

NNS(=O)(=O)c1ccccc1
inactive: dose: 25.0 mg/kg/injection, schedule: Q04DX003 (ip), vehicle: saline 101 % of control | [4] 101 % of control | dose: 50.0 mg/kg/injection, schedule: Q04DX003 (ip), vehicle: saline 101 % of control | [5] 92 % of control | dose: 100.0 mg/kg/injection, schedule: Q04DX003 (ip), vehicle: saline 103 % of control

CCOC(=O)CNNC(=O)C(O)C(O)C(O)C(O)CO (stereo not drawn)
inactive: dose: 100.0 mg/kg/injection, schedule: Q01DX001 (ip), vehicle: saline 87 % of control | [13] 100 % of control | [14] 100 % of control

Cc1ccc(NC(=O)Oc2ccc(F)cc2)cc1NC(=O)Oc1ccc(F)cc1
inactive: dose: 25.0 mg/kg/injection, schedule: Q01DX009 (ip), vehicle: other 95 % of control | dose: 50.0 mg/kg/injection, schedule: Q01DX009 (ip), vehicle: other 95 % of control | dose: 100.0 mg/kg/injection, schedule: Q01DX009 (ip), vehicle: other 94 % of control and 100 % of control

CCCCCCCCCCCCCCCCCC(=O)Nc1ccc(OC(=O)NC)cc1
inactive: [10] 93 % of control | [15] 88 % of control

CCCN(C)N=Nc1ccccc1C(=O)O
inactive: dose: 12.5 mg/kg/injection, schedule: Q01DX009 (ip), vehicle: Klucel (hydroxypropylcellulose) (HPC) 106 % of control and 113 % of control and 124 % of control | dose: 12.5 mg/kg/injection, schedule: Q04DX003 (ip), vehicle: Klucel (hydroxypropylcellulose) (HPC) 105 % of control | dose: 25.0 mg/kg/injection, schedule: Q01DX009 (ip), vehicle: Klucel (hydroxypropylcellulose) (HPC) 114 % of control and 116 % of control | dose: 25.0 mg/kg/injection, schedule: Q04DX003 (ip), vehicle: Klucel (hydroxypropylcellulose) (HPC) 118 % of control | dose: 50.0 mg/kg/injection, schedule: Q04DX003 (ip), vehicle: Klucel (hydroxypropylcellulose) (HPC) 105 % of control | dose: 75.0 mg/kg/injection, schedule: Q01DX009 (ip), vehicle: Klucel (hydroxypropylcellulose) (HPC) 87 % of control | [11] 113 % of control

C#CC(O)C1OC2OC(C)(C)OC2C1O (stereo not drawn)
inactive: [11] 101 % of control | [15] 97 % of control | [12] 101 % of control | [16] 96 % of control | dose: 400.0 mg/kg/injection, schedule: Q04DX003 (ip), vehicle: Klucel (hydroxypropylcellulose) (HPC) 113 % of control
active: [10] 173 % of control

Cc1nc(N)nc(Nc2ccc(CCO)cc2)c1Br
inactive: dose: 100.0 mg/kg/injection, schedule: Q01DX Z (ip), vehicle: methylcellulose (MC) 103 % of control | dose: 200.0 mg/kg/injection, schedule: Q01DX Z (ip), vehicle: methylcellulose (MC) 98 % of control

CC1=C2C3OC(=O)C(C)C3C=CC2(C)C(=O)CC1 (stereo not drawn)
inactive: [7] 87 % of control | [8] 89 % of control | [9] 89 % of control

Cc1cccc[n+]1C
inactive: [4] 111 % of control | [17] 95 % of control | [5] 92 % of control | [18] 104 % of control | [6] 103 % of control

CN(C)C(=O)Sc1ccc([N+](=O)[O-])cc1
inactive: [7] 105 % of control | [8] 111 % of control | [9] 104 % of control

O=C(/C=C/C=C\c1ccccc1)/C=C/C=C/c1ccccc1
inactive: [17] 91 % of control | [10] 92 % of control | [18] 93 % of control | [15] 92 % of control | dose: 400.0 mg/kg/injection, schedule: Q01DX001 (ip), vehicle: Klucel (hydroxypropylcellulose) (HPC) 93 % of control | [16] 89 % of control

O=C1NC2(C(=O)O1)C1CC3CC(C1)CC2C3 (stereo not drawn)
inactive: dose: 12.5 mg/kg/injection, schedule: Q01DX009 (ip), vehicle: saline 108 % of control | dose: 25.0 mg/kg/injection, schedule: Q01DX009 (ip), vehicle: saline 107 % of control | dose: 50.0 mg/kg/injection, schedule: Q01DX009 (ip), vehicle: saline 105 % of control | dose: 100.0 mg/kg/injection, schedule: Q04DX003 (ip), vehicle: alcohol 100 % of control | dose: 200.0 mg/kg/injection, schedule: Q04DX003 (ip), vehicle: alcohol 90 % of control | dose: 400.0 mg/kg/injection, schedule: Q04DX003 (ip), vehicle: alcohol 100 % of control

O=c1c2ccccc2c(=O)c2c1ccc1[nH]c3ccccc3n(-c3ccccc3)c12
inactive: [7] 88 % of control | [8] 89 % of control | [9] 94 % of control

Cc1c2c(cc3c1[nH]c1ccccc13)C(C(F)(F)F)=NCC2
inactive: dose: 16.0 mg/kg/injection, schedule: Q01DX005 (ip), vehicle: saline 97 % of control | dose: 32.0 mg/kg/injection, schedule: Q01DX005 (ip), vehicle: saline 100 % of control | dose: 64.0 mg/kg/injection, schedule: Q01DX005 (ip), vehicle: saline 100 % of control | dose: 128.0 mg/kg/injection, schedule: Q01DX005 (ip), vehicle: saline 101 % of control

Nc1ccc(C(=O)Nc2ccc(NC(=O)Nc3ccc(NC(=O)c4ccc(N)cc4)c(S(=O)(=O)O)c3)cc2S(=O)(=O)O)cc1
inactive: dose: 60.0 mg/kg/injection, schedule: Q01DX Z (ip), vehicle: carboxymethylcellulose (CMC) 96 % of control | dose: 120.0 mg/kg/injection, schedule: Q01DX Z (ip), vehicle: carboxymethylcellulose (CMC) 98 % of control | dose: 240.0 mg/kg/injection, schedule: Q01DX Z (ip), vehicle: carboxymethylcellulose (CMC) 95 % of control | dose: 240.0 mg/kg/injection, schedule: Q01DX Z (oral), vehicle: carboxymethylcellulose (CMC) 106 % of control | dose: 480.0 mg/kg/injection, schedule: Q01DX Z (ip), vehicle: carboxymethylcellulose (CMC) 95 % of control | dose: 480.0 mg/kg/injection, schedule: Q01DX Z (oral), vehicle: carboxymethylcellulose (CMC) 112 % of control | dose: 960.0 mg/kg/injection, schedule: Q01DX Z (oral), vehicle: carboxymethylcellulose (CMC) 93 % of control

Cc1cccc2c1/C(=N\Nc1ccc([N+](=O)[O-])cc1[N+](=O)[O-])CC(C)(C)C2
inactive: [1] 104 % of control | [2] 100 % of control | [3] 100 % of control

O=C(/C(=C/c1ccc(Cl)cc1)c1ccccc1)c1ccc(O)cc1
inactive: [13] 92 % of control | [14] 86 % of control
